Experimental data: patent US10857139B2, “Substituted diazaspiroalkanes as androgen receptor modulators” (The Regents of the University of California, priority 2006, dated 2020)

What was measured:
[1] = biological target: T1, androgen receptor (AR) (Homo sapiens, UniProt P10275, T878A); experiment: Secreted PSA induced by R1881 in hormone sensitive (HS) LNCaP cells (PSA ELISA); format: cell-based; conditions: FIG. 1, R1881, 5 days incubation
T1 construct: endogenous in cells; host or cells: LNCaP cells
T1 sequence (P10275 1-920 T878A): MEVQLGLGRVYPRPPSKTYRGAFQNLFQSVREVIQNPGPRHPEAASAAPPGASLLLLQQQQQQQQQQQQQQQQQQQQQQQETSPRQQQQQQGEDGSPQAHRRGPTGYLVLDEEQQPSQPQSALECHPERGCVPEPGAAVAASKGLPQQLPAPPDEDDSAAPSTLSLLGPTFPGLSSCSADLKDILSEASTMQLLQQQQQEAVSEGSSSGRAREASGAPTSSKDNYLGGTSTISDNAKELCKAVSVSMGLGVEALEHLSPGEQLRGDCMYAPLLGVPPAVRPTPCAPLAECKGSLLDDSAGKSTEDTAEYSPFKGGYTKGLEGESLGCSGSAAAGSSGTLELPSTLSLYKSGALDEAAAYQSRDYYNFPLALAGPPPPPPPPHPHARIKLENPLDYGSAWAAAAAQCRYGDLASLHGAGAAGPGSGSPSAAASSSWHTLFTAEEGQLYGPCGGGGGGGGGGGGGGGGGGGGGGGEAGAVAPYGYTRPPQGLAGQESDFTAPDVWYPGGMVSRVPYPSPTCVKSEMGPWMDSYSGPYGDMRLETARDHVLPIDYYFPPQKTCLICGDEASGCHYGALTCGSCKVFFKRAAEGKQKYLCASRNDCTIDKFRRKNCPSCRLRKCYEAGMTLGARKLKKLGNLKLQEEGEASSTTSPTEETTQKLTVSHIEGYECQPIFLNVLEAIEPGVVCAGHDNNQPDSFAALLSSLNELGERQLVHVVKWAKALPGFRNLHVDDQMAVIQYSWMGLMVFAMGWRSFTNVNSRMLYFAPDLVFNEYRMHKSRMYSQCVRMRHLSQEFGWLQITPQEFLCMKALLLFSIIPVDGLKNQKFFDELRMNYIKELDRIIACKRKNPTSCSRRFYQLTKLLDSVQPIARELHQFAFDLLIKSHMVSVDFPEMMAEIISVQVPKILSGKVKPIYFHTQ
Experimental: (§2) The biological activity of the compound of formula II was measured by secreted levels of prostate specific antigen (PSA). […] LNCaP cells (or LNCaP/AR cells) were maintained in Iscove's medium containing 10% FBS. Five days prior to drug treatment, the cells were grown in Iscove's medium containing 10% CS-FBS to deprive of androgens.

[2] = tested on: androgen receptor (AR); experiment: Secreted PSA induced by R1881 in hormone refractory (HR) LNCaP/AR cells (PSA ELISA); format: cell-based; conditions: FIG. 3, R1881, 5 days incubation
Experimental: as §2

[3] = tested on: LNCaP cells; experiment: MTS assay, growth inhibition of HS cancer cells; format: cell-based; conditions: FIG. 2
Experimental: The biological activity of the compound of formula II was measured by secreted levels of prostate specific antigen (PSA). It is well established that PSA levels are indicators of AR activities in prostate cancer. […] After 5 days of incubation, secreted PSA levels were assayed using PSA ELISA kits (American Qualex, San Clemente, Calif.) (See FIG. 1 and FIG. 3). The MTS assay was also used to examine the growth inhibition of the compounds of formula II (See FIG. 2).

[4] = tested on: LNCaP-AR tumors; experiment: LNCaP-AR xenograft tumor growth in SCID mice; format: in vivo; conditions: for effect on tumors in an in vivo assay: administered as described (iv or oral formulation); for effect on tumor: daily dose of 1 mg/kg; for effect on tumor / tumor cytotoxicity / tumor growth: SCID mice; for tumor cytotoxicity: daily dose of 25-50 mg/kg; for tumor growth: daily oral dose of 10 mg/kg
Experimental: All animal experiments were performed in compliance with the guidelines of the Animal Research Committee of the University of California at Los Angeles. Animals were bought from Taconic and maintained in a laminar flow tower in a defined flora colony. LNCaP-AR and LNCaP-vector cells were maintained in RPMI medium supplemented with 10% FBS. 10^6 cells in 100 μl of 1:1 Matrigel to RPMI medium were injected subcutaneously into the flanks of intact or castrated male SCID mice. Tumor size was measured weekly in three dimensions (length×width×depth) using calipers. Mice were randomized to treatment groups when tumor size reached approximately 100 mm^3. Drugs were given orally everyday at the dose of 10 mg/kg.
Other doses were also tried.
Prostate cancer cell lines were used for xenografts. For example, a LNCaP xenograft, LAPC4 xenograft, LAPC9 xenograft, and xenografts of the hormone refractory counterparts of these cell lines were made. Other cell lines included V-cap, CWR22 and LAPC4 cell lines. Two cell lines that over express the androgen receptor were generated, LNCaP AR and LAPC4 AR. […] Under androgen ablation, the LNCaP AR and LAPC4 AR lines continued to grow, thus behaving like hormone refractory cells.
CB17 SCID mice were used in the study.
Injections were made subcutaneously on the right flank of the mouse. […] In addition, because of the usage of Matrigel, injection of no more than 200 μl was found appropriate. Injection of 100-200 μl was found appropriate. Injecting too large a volume created leakage upon needle withdrawal.

[5] = Stability of intravenous formulation (DMSO/PBS solution) at room temperature; format: physicochemical; conditions: 10-25% DMSO, balance PBS
Experimental: A compound presently disclosed, for example, compound A51 or A52, can be in a formulation suitable for intravenous dosing. In an embodiment, the compound is dissolved in from about 10% to about 25% dimethylsulfoxide (DMSO). 1× phosphate buffered saline (PBS) is then mixed into the solution as the balance, and the solution is sonicated with a water bath sonicator until it is homogeneous.
At a compound concentration of 1.5 mg/mL, 5 minutes of sonication may be sufficient to dissolve the compound. At a compound concentration of 2 mg/ml, more than 5 minutes of sonication may be required to dissolve the compound and a polyethylene glcyol can be added to keep the compound in suspension. For example, 5 to 40% PEG-400 (a polyethylene glycol), such as, 5-10% PEG-400, can be added.

[6] = Solubility in ethanol; format: physicochemical
Source text: (§1) When administered to mice, hardening of the skin and skin irritation around the injection site was observed, and this was attributed to the use of DMSO.

[7] = Stability of the compounds in vivo with ethanol as solvent; conditions: mice
Source text: as §1

[8] = Suspension stability of oral formulation (DMSO/CMC/Tween 80/water); format: physicochemical; conditions: oral formulation: DMSO, CMC, Tween 80, water; about 1.5 mg/mL
Experimental: In an embodiment, the compound is dissolved in 100% DMSO.
Additional chemicals can be added, such as a carboxymethylcellulose, a polysorbate, or water. […] The solution is mechanically homogenized for at least 30 seconds.
That is, more than 10% DMSO was not required.

Structure (SMILES) | antagonist effect on HS cancer cells (secreted PSA) [1] | antagonist effect on HR cancer cells (secreted PSA) [2] | antagonist effect on HS cancer cells (MTS growth inhibition) [3] | effect on tumors in an in vivo assay [4] | effect on tumor [4] | tumor cytotoxicity [4] | tumor growth [4] | stability of solution [5] | solubility in ethanol [6] | effect of ethanol on stability of the compounds in vivo [7] | time the compound stays in suspension [8] | Luciferase activity ([4]; FIG. 6, after 17 days of treatment)
Cc1ccc(N2C(=S)N(c3cnc(C#N)c(C(F)(F)F)c3)C(=O)C23CCC3)cc1 [A51, 5-(8-oxo-6-thioxo-5-(4-methylphenyl)-5,7-diazaspiro[3.4]oct-7yl)-3-trifluoromethylpyridine-2-carbonitrile] | antagonist effect | antagonist effect | antagonist effect | beneficial effect on tumors | mild effect | some tumor cytotoxicity | completely retard tumor growth | stable at room temperature for at least a week | soluble in ethanol | reduce the stability | only a couple of hours | 
CNC(=O)c1ccc(N2C(=S)N(c3cnc(C#N)c(C(F)(F)F)c3)C(=O)C23CCC3)cc1F [A52, 4-[7-(6-cyano-5-trifluoromethylpyridin-3-yl)-8-oxo-6-thioxo-5,7-diazaspiro[3,4]oct-5-yl]-2-fluoro-N-methylbenzamide] |  |  | antagonist effect | beneficial effect on tumors | mild effect | some tumor cytotoxicity | completely retard tumor growth | stable at room temperature for at least a week | soluble in ethanol | reduce the stability | only a couple of hours | disappearance of Luciferase activity
